# Measurements: PubChem BioAssay (NCI)
# Several values for one entry are separate records, joined by “and”; a condition that tells them apart may be missing. Equal values may be shown once.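 A five-concentration, 48-hour dose response in 96-well plates underlies each endpoint, interpolated linearly between surrounding concentrations. Abbreviation: GI50, concentration required for 50% inhibition of growth. TGI: total growth inhibition.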
# Experiments:
# Experiment in all cases: NCI-60 cell line screen, 48 h
# UO-31 renal = system: UO-31 renal
# HS 578T breast = system: HS 578T breast
# MCF7 breast = system: MCF7 breast
# OVCAR-3 ovarian = system: OVCAR-3 ovarian
# SF-539 CNS = system: SF-539 CNS
# NCI-H522 lung = system: NCI-H522 lung
# MDA-N = system: MDA-N
# SW-620 colon = system: SW-620 colon
# HCT-116 colon = system: HCT-116 colon
# BT-549 breast = system: BT-549 breast
# OVCAR-8 ovarian = system: OVCAR-8 ovarian
# T-47D breast = system: T-47D breast
# ACHN renal = system: ACHN renal
# EKVX NSCLC = system: EKVX NSCLC
# SK-MEL-2 melanoma = system: SK-MEL-2 melanoma
# SNB-75 CNS = system: SNB-75 CNS
# UACC-62 melanoma = system: UACC-62 melanoma
# CCRF-CEM leukemia = system: CCRF-CEM leukemia
# U251 CNS = system: U251 CNS
# NCI-H460 lung = system: NCI-H460 lung
# IGROV1 ovarian = system: IGROV1 ovarian
# TK-10 renal = system: TK-10 renal
# SK-OV-3 ovarian = system: SK-OV-3 ovarian
# M14 melanoma = system: M14 melanoma
# KM12 colon = system: KM12 colon
# A549 NSCLC = system: A549 NSCLC
# NCI-H226 lung = system: NCI-H226 lung
# HL-60(TB) leukemia = system: HL-60(TB) leukemia
# LOX IMVI melanoma = system: LOX IMVI melanoma
# OVCAR-4 ovarian = system: OVCAR-4 ovarian
# 786-0 renal = system: 786-0 renal
# HCC-2998 colon = system: HCC-2998 colon
# RXF 393 renal = system: RXF 393 renal
# HOP-62 NSCLC = system: HOP-62 NSCLC
# COLO 205 colon = system: COLO 205 colon
# MOLT-4 leukemia = system: MOLT-4 leukemia
# K-562 leukemia = system: K-562 leukemia
# NCI-H23 lung = system: NCI-H23 lung
# DU-145 prostate = system: DU-145 prostate
# HCT-15 colon = system: HCT-15 colon
# PC-3 prostate = system: PC-3 prostate
# NCI/ADR-RES ovarian = system: NCI/ADR-RES ovarian
# UACC-257 melanoma = system: UACC-257 melanoma
# MDA-MB-435 = system: MDA-MB-435
# SK-MEL-28 melanoma = system: SK-MEL-28 melanoma
# RPMI-8226 leukemia = system: RPMI-8226 leukemia
# CAKI-1 renal = system: CAKI-1 renal
# SF-268 CNS = system: SF-268 CNS
# A498 renal = system: A498 renal
# MDA-MB-231 breast = system: MDA-MB-231 breast
# OVCAR-5 ovarian = system: OVCAR-5 ovarian
# HT29 colon = system: HT29 colon
# HOP-92 NSCLC = system: HOP-92 NSCLC
# SR leukemia = system: SR leukemia
# SF-295 CNS = system: SF-295 CNS
# SN12C renal = system: SN12C renal
# SNB-19 CNS = system: SNB-19 CNS
# SK-MEL-5 melanoma = system: SK-MEL-5 melanoma
# DLD-1 colon = system: DLD-1 colon
# DMS 114 small cell lung = system: DMS 114 small cell lung
# KM20L2 colon = system: KM20L2 colon
# MALME-3M melanoma = system: MALME-3M melanoma
# HOP-18 NSCLC = system: HOP-18 NSCLC
# DMS 273 small cell lung = system: DMS 273 small cell lung
# LXFL 529 NSCLC = system: LXFL 529 NSCLC
# M19-MEL melanoma = system: M19-MEL melanoma
# XF 498 CNS = system: XF 498 CNS
smiles,measurement,setting,value
O=c1c2cc(I)ccc2nc(Sc2ncccc2[N+](=O)[O-])n1Cc1ccccc1,TGI,UO-31 renal,> 100 µM
same,TGI,HS 578T breast,92.3 µM
same,TGI,MCF7 breast,> 100 µM
same,TGI,OVCAR-3 ovarian,> 100 µM
same,TGI,SF-539 CNS,> 100 µM
same,TGI,NCI-H522 lung,78 µM
same,TGI,MDA-N,> 100 µM
same,TGI,SW-620 colon,> 100 µM
same,TGI,HCT-116 colon,> 100 µM
same,TGI,BT-549 breast,64 µM
same,TGI,OVCAR-8 ovarian,> 100 µM
same,TGI,T-47D breast,> 100 µM
same,TGI,ACHN renal,> 100 µM
same,TGI,EKVX NSCLC,71.2 µM
same,TGI,SK-MEL-2 melanoma,30.8 µM
same,TGI,SNB-75 CNS,> 100 µM
same,TGI,UACC-62 melanoma,> 100 µM
same,TGI,CCRF-CEM leukemia,> 100 µM
same,TGI,U251 CNS,> 100 µM
same,TGI,NCI-H460 lung,> 100 µM
same,TGI,IGROV1 ovarian,> 100 µM
same,TGI,TK-10 renal,> 100 µM
same,TGI,SK-OV-3 ovarian,> 100 µM
same,TGI,M14 melanoma,> 100 µM
same,TGI,KM12 colon,> 100 µM
same,TGI,A549 NSCLC,> 100 µM
same,TGI,NCI-H226 lung,> 100 µM
same,TGI,HL-60(TB) leukemia,2.02 µM
same,TGI,LOX IMVI melanoma,> 100 µM
same,TGI,OVCAR-4 ovarian,> 100 µM
same,TGI,786-0 renal,> 100 µM
same,TGI,HCC-2998 colon,> 100 µM
same,TGI,RXF 393 renal,> 100 µM
same,TGI,HOP-62 NSCLC,> 100 µM
same,TGI,COLO 205 colon,> 100 µM
same,TGI,MOLT-4 leukemia,> 100 µM
same,TGI,K-562 leukemia,> 100 µM
same,TGI,NCI-H23 lung,> 100 µM
same,TGI,DU-145 prostate,> 100 µM
same,TGI,HCT-15 colon,> 100 µM
same,TGI,PC-3 prostate,> 100 µM
same,TGI,NCI/ADR-RES ovarian,> 100 µM
same,TGI,UACC-257 melanoma,> 100 µM
same,TGI,MDA-MB-435,> 100 µM
same,TGI,SK-MEL-28 melanoma,> 100 µM
same,TGI,RPMI-8226 leukemia,> 100 µM
same,TGI,CAKI-1 renal,> 100 µM
same,TGI,SF-268 CNS,> 100 µM
same,TGI,A498 renal,> 100 µM
same,TGI,MDA-MB-231 breast,> 100 µM
same,TGI,OVCAR-5 ovarian,> 100 µM
same,TGI,HT29 colon,> 100 µM
same,TGI,HOP-92 NSCLC,77.6 µM
same,TGI,SR leukemia,> 100 µM
same,TGI,SF-295 CNS,> 100 µM
same,TGI,SN12C renal,> 100 µM
same,TGI,SNB-19 CNS,> 100 µM
same,TGI,SK-MEL-5 melanoma,91.6 µM
CC(=O)OCC1OC(OC2CC3C(C)(C)C(O)CC[C@]3(C)C3CCC45CC4(CC[C@H]5C(C)CC(O)C4OC4(C)C)[C@]23C)C(O)C(O)C1O (some centres undefined),GI50,UO-31 renal,17.7 µM
same,TGI,UO-31 renal,15.4 µM and 31.6 µM
same,GI50,OVCAR-3 ovarian,4.26 µM
same,TGI,OVCAR-3 ovarian,12.5 µM and 17.6 µM
same,GI50,SF-539 CNS,6.32 µM
same,TGI,SF-539 CNS,15.3 µM and 18.7 µM
same,GI50,DLD-1 colon,14 µM
same,TGI,DLD-1 colon,14.9 µM and 28.8 µM
same,GI50,NCI-H522 lung,5.75 µM
same,TGI,NCI-H522 lung,11.8 µM and 19 µM
same,GI50,SW-620 colon,4.74 µM
same,TGI,SW-620 colon,16.5 µM and 16.9 µM
same,GI50,HCT-116 colon,3.57 µM
same,TGI,HCT-116 colon,16.3 µM and 21.8 µM
same,GI50,OVCAR-8 ovarian,8.97 µM
same,TGI,OVCAR-8 ovarian,14.4 µM and 23.8 µM
same,GI50,DMS 114 small cell lung,6.7 µM
same,TGI,DMS 114 small cell lung,11.3 µM and 21.3 µM
same,GI50,ACHN renal,19.2 µM
same,TGI,ACHN renal,15.5 µM and 33.6 µM
same,GI50,EKVX NSCLC,13.7 µM
same,TGI,EKVX NSCLC,15.9 µM and 29.2 µM
same,GI50,SK-MEL-2 melanoma,2.46 µM
same,TGI,SK-MEL-2 melanoma,12.1 µM and 8.67 µM
same,GI50,SNB-75 CNS,13.7 µM
same,TGI,SNB-75 CNS,15 µM and 26.6 µM
same,GI50,UACC-62 melanoma,4.99 µM
same,TGI,UACC-62 melanoma,14.2 µM and 17.3 µM
same,GI50,CCRF-CEM leukemia,2.56 µM
same,TGI,CCRF-CEM leukemia,6.74 µM and 6.72 µM
same,GI50,U251 CNS,5.17 µM
same,TGI,U251 CNS,10.3 µM and 16.5 µM
same,GI50,NCI-H460 lung,5.08 µM
same,TGI,NCI-H460 lung,16.8 µM and 20.4 µM
same,GI50,IGROV1 ovarian,5.91 µM
same,TGI,IGROV1 ovarian,7.61 µM and 15.6 µM
same,GI50,TK-10 renal,15.2 µM
same,TGI,TK-10 renal,15.7 µM and 29.5 µM
same,GI50,SK-OV-3 ovarian,15.7 µM
same,TGI,SK-OV-3 ovarian,15 µM and 29.2 µM
same,GI50,M14 melanoma,5.37 µM
same,TGI,M14 melanoma,16 µM and 17.2 µM
same,GI50,KM12 colon,4.66 µM
same,TGI,KM12 colon,15.6 µM and 17.3 µM
same,GI50,A549 NSCLC,12.3 µM
same,TGI,A549 NSCLC,18.5 µM and 27.1 µM
same,TGI,NCI-H226 lung,16.1 µM
same,GI50,HL-60(TB) leukemia,1.73 µM
same,TGI,HL-60(TB) leukemia,3.67 µM and 4.18 µM
same,GI50,LOX IMVI melanoma,1.52 µM
same,TGI,LOX IMVI melanoma,12.1 µM and 3.17 µM
same,GI50,OVCAR-4 ovarian,13.9 µM
same,TGI,OVCAR-4 ovarian,15.8 µM and 30.7 µM
same,GI50,786-0 renal,5.67 µM
same,TGI,786-0 renal,14.9 µM and 18.9 µM
same,GI50,HCC-2998 colon,8.26 µM
same,TGI,HCC-2998 colon,13.8 µM and 21.3 µM
same,GI50,RXF 393 renal,9.7 µM
same,TGI,RXF 393 renal,10.7 µM and 38.5 µM
same,GI50,HOP-62 NSCLC,14.2 µM
same,TGI,HOP-62 NSCLC,19.1 µM and 29.5 µM
same,GI50,COLO 205 colon,3.4 µM
same,TGI,COLO 205 colon,13.8 µM and 11.9 µM
same,GI50,KM20L2 colon,11.9 µM
same,TGI,KM20L2 colon,15.6 µM and 24.2 µM
same,GI50,MOLT-4 leukemia,3.01 µM
same,TGI,MOLT-4 leukemia,2.34 µM and 7.26 µM
same,TGI,K-562 leukemia,4.12 µM and 16.2 µM
same,GI50,NCI-H23 lung,12.2 µM
same,TGI,NCI-H23 lung,16.5 µM and 27.5 µM
same,GI50,HCT-15 colon,14.2 µM
same,TGI,HCT-15 colon,15.3 µM and 27.6 µM
same,TGI,UACC-257 melanoma,16.1 µM and 22.6 µM
same,GI50,MALME-3M melanoma,4.52 µM
same,TGI,MALME-3M melanoma,16.5 µM and 20.8 µM
same,GI50,SK-MEL-28 melanoma,8.37 µM
same,TGI,SK-MEL-28 melanoma,14.3 µM and 21.3 µM
same,GI50,RPMI-8226 leukemia,2.49 µM
same,TGI,RPMI-8226 leukemia,2.41 µM and 7.16 µM
same,GI50,CAKI-1 renal,19.6 µM
same,TGI,CAKI-1 renal,17.1 µM and 34.4 µM
same,GI50,HOP-18 NSCLC,5.27 µM
same,TGI,HOP-18 NSCLC,13.6 µM and 17.5 µM
same,GI50,SF-268 CNS,11 µM
same,TGI,SF-268 CNS,13.4 µM and 28.4 µM
same,TGI,A498 renal,51.8 µM
same,GI50,OVCAR-5 ovarian,15.8 µM
same,TGI,OVCAR-5 ovarian,16.1 µM and 29.2 µM
same,GI50,HT29 colon,12.9 µM
same,TGI,HT29 colon,15.7 µM and 27.7 µM
same,GI50,DMS 273 small cell lung,4.44 µM
same,TGI,DMS 273 small cell lung,15.1 µM and 15.7 µM
same,TGI,HOP-92 NSCLC,14.6 µM
same,GI50,SR leukemia,1.93 µM
same,TGI,SR leukemia,3.53 µM and 4.13 µM
same,TGI,SF-295 CNS,15.1 µM and 19.5 µM
same,GI50,LXFL 529 NSCLC,2.92 µM
same,TGI,LXFL 529 NSCLC,12.2 µM and 12.6 µM
same,TGI,SN12C renal,15.2 µM and 21.6 µM
same,GI50,M19-MEL melanoma,3.7 µM
same,TGI,M19-MEL melanoma,10.6 µM and 12.6 µM
same,GI50,SNB-19 CNS,5.14 µM
same,TGI,SNB-19 CNS,15 µM and 16.9 µM
same,TGI,XF 498 CNS,14.3 µM
same,GI50,SK-MEL-5 melanoma,5.65 µM
same,TGI,SK-MEL-5 melanoma,10.2 µM and 17.6 µM
